In PubChem BioAssay AID284 (DTP/NCI, 2004):
Where “and” joins values, the source holds several entries; their conditions need not be identical. Equal entries are not always repeated. Inconclusive results and toxic doses are left out.

System: BDF1 mice, L1210/MTX-resistant leukemia ip, survival T/C
Test: NCI In Vivo Anticancer Drug Screen. Data for tumor model L1210 Leukemia resistant to Methotrexate; NSC 740 (intraperitoneal) in B6D2F1 (BDF1) mice
Conditions: endpoint: mean survival time, higher = longer survival
Description: The antitumor activity of compounds was measured in mice bearing transplantable tumors. Survival or tumor size were measured and the results are expressed as the measurement made in the treated group (T) divided by the measurement made in the vehicle treated control group (C). The tumor model used in this assay is L1210 Leukemia resistant to Methotrexate; NSC 740 (intraperitoneal) in B6D2F1 (BDF1) mice

[1] = dose: 7.5 mg/kg/injection, schedule: Q01DX Z (ip), vehicle: carboxymethylcellulose (CMC)

C[C@@H]1C[C@@H]([C@H](O)CC2CC(=O)NC(=O)C2)C(=O)[C@@H](C)C1
T/C (dose: 5.0 mg/kg/injection, schedule: Q01DX010 (ip), vehicle: saline): 90 % of control and 105 % of control
T/C [1]: 112 % of control and 96 % of control
T/C (dose: 10.0 mg/kg/injection, schedule: Q01DX010 (ip), vehicle: saline): 103 % of control
T/C (dose: 15.0 mg/kg/injection, schedule: Q01DX Z (ip), vehicle: carboxymethylcellulose (CMC)): 92 % of control and 108 % of control
T/C (dose: 20.0 mg/kg/injection, schedule: Q01DX010 (ip), vehicle: saline): 97 % of control
T/C (dose: 30.0 mg/kg/injection, schedule: Q01DX Z (ip), vehicle: carboxymethylcellulose (CMC)): 114 % of control
T/C (dose: 40.0 mg/kg/injection, schedule: Q01DX010 (ip), vehicle: saline): 95 % of control and 97 % of control

O=C(Nc1ccc(C2=NCCN2)cc1)c1ccc(C(=O)Nc2ccc(C3=NCCN3)cc2)c([N+](=O)[O-])c1
T/C (dose: 6.0 mg/kg/injection, schedule: Q01DX010 (ip), vehicle: saline): 259 % of control
T/C (dose: 6.3 mg/kg/injection, schedule: Q01DX Z (ip), vehicle: saline): 122 % of control
T/C (dose: 8.0 mg/kg/injection, schedule: Q01DX010 (ip), vehicle: saline): 284 % of control
T/C (dose: 12.0 mg/kg/injection, schedule: Q01DX010 (ip), vehicle: saline): 201 % of control
T/C (dose: 12.5 mg/kg/injection, schedule: Q01DX Z (ip), vehicle: saline): 97 % of control
T/C (dose: 18.0 mg/kg/injection, schedule: Q01DX010 (ip), vehicle: saline): 107 % of control
T/C (dose: 25.0 mg/kg/injection, schedule: Q01DX Z (ip), vehicle: saline): 116 % of control and 96 % of control

NC(Cc1ccc(N(CCCl)CCCl)cc1)C(=O)O (stereo unspecified)
T/C (dose: 0.5 mg/kg/injection, schedule: Q01DX Z (ip), vehicle: carboxymethylcellulose (CMC)): 112 % of control
T/C (dose: 1.0 mg/kg/injection, schedule: Q01DX Z (ip), vehicle: carboxymethylcellulose (CMC)): 123 % of control
T/C (dose: 2.0 mg/kg/injection, schedule: Q01DX010 (ip), vehicle: other): 156 % of control
T/C (dose: 2.0 mg/kg/injection, schedule: Q01DX Z (ip), vehicle: carboxymethylcellulose (CMC)): 102 % of control
T/C (dose: 4.0 mg/kg/injection, schedule: Q01DX010 (ip), vehicle: other): 98 % of control
T/C (dose: 4.0 mg/kg/injection, schedule: Q01DX Z (ip), vehicle: carboxymethylcellulose (CMC)): 90 % of control
T/C (dose: 5.0 mg/kg/injection, schedule: Q01DX Z (ip), vehicle: carboxymethylcellulose (CMC)): 107 % of control
T/C [1]: 86 % of control
T/C (dose: 8.0 mg/kg/injection, schedule: Q01DX010 (ip), vehicle: other): 91 % of control
T/C (dose: 10.0 mg/kg/injection, schedule: Q01DX Z (ip), vehicle: carboxymethylcellulose (CMC)): 93 % of control

Clc1ccc(C(c2ccccc2Cl)C(Cl)Cl)cc1 (stereo unspecified)
T/C (dose: 62.5 mg/kg/injection, schedule: Q01DX Z (sc), vehicle: steriod suspending solution): 105 % of control
T/C (dose: 125.0 mg/kg/injection, schedule: Q01DX Z (sc), vehicle: steriod suspending solution): 99 % of control
T/C (dose: 250.0 mg/kg/injection, schedule: Q01DX Z (sc), vehicle: steriod suspending solution): 107 % of control
T/C (dose: 500.0 mg/kg/injection, schedule: Q01DX Z (sc), vehicle: steriod suspending solution): 110 % of control

O=C(CCBr)N1CCN(C(=O)CCBr)CC1
T/C (dose: 1.6 mg/kg/injection, schedule: Q01DX Z (ip), vehicle: methylcellulose (MC)): 86 % of control
T/C (dose: 3.2 mg/kg/injection, schedule: Q01DX Z (ip), vehicle: methylcellulose (MC)): 90 % of control
T/C (dose: 6.3 mg/kg/injection, schedule: Q01DX Z (ip), vehicle: methylcellulose (MC)): 100 % of control
